Reference: US6221865A, “Inhibitors of protein isoprenyl transferases” (priority 1998, dated 2001)
Structures can show the parent of a compound that is named as a salt. Blank lines part the entries; values can stand above or below the compound they belong to.

Biological target: T1, protein farnesyltransferase (Rattus norvegicus, UniProt Q02293+Q04631)
T1 construct: The enzyme is purified according to Reiss, Y., et al., Cell, 62: 81-88 (1990), utilizing steps one through three; from tissue; host or cells: rat brain
Assay: Inhibition of farnesyltransferase (scintillation proximity assay, rat brain enzyme, biotin-K Ras B fragment substrate)
Type: biochemical
Details: for % inhibition of farnesyltransferase at 1 × 10^-5 M: 1 × 10^-5 M (Table 1); for % inhibition of farnesyltransferase at 1 × 10^-6 M / inhibition at 1 µM: 1 × 10^-6 M (Table 2); for % inhibition of farnesyltransferase at 1 × 10^-8 M: 1 × 10^-8 M (Table 4); for inhibition at 1 µM: read-out: % inhibition of farnesyltransferase at 1 × 10^-6 M; for % inhibition of farnesyltransferase at 1 × 10^-7 M / inhibition at 0.1 µM: 1 × 10^-7 M (Table 3); for inhibition at 0.1 µM: read-out: % inhibition of farnesyltransferase at 1 × 10^-7 M
Method in brief: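 Enzyme from rat brain, partly purified (steps one to three), assayed by SPA kit using 0.1 mM final biotin-K Ras B peptide as prenyl acceptor rather than biotin-lamin. Activity given as percent inhibition.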

T1 sequence (Q02293 whole entry, one chain of several): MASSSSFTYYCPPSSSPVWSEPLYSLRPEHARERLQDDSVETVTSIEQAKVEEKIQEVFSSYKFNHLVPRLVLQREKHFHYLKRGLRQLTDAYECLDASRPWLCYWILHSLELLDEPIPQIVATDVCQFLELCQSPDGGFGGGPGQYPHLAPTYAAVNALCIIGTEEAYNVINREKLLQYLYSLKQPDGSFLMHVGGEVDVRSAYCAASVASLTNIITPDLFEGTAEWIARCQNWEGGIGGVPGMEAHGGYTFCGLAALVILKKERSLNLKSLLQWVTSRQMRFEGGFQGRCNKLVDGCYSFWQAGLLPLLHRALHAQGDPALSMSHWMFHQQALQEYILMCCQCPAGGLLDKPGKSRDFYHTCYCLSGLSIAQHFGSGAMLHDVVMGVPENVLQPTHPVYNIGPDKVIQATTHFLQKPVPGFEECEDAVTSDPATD

% inhibition of farnesyltransferase at 1 × 10^-5 M: 44%
SMILES: CSCC[C@H](NC(=O)c1ccc(NC(=O)CCN)cc1-c1ccccc1)C(=O)O [Example 750]

% inhibition of farnesyltransferase at 1 × 10^-6 M: 32%
SMILES: CSCC[C@H](NC(=O)c1ccc(NC(=O)C[C@H]2C[C@@H](C(C)=O)C2(C)C)cc1-c1ccccc1)C(=O)O [Example 751]

% inhibition of farnesyltransferase at 1 × 10^-5 M: 58%
SMILES: CSCC[C@H](NC(=O)c1ccc(NC(=O)c2cccc(N(C)C)c2)cc1-c1ccccc1)C(=O)O [Example 752]

% inhibition of farnesyltransferase at 1 × 10^-5 M: 55%
SMILES: COc1cc(Cl)ccc1C(=O)Nc1ccc(C(=O)N[C@@H](CCSC)C(=O)O)c(-c2ccccc2)c1 [Example 753]

% inhibition of farnesyltransferase at 1 × 10^-5 M: 40%
SMILES: COc1ccc(Br)c(C(=O)Nc2ccc(C(=O)N[C@@H](CCSC)C(=O)O)c(-c3ccccc3)c2)c1 [Example 754]

% inhibition of farnesyltransferase at 1 × 10^-5 M: 47%
SMILES: COc1cc(I)c(C(=O)Nc2ccc(C(=O)N[C@@H](CCSC)C(=O)O)c(-c3ccccc3)c2)cc1OC [Example 756]

% inhibition of farnesyltransferase at 1 × 10^-5 M: 58%
SMILES: CSCC[C@H](NC(=O)c1ccc(NC(=O)Cc2ccccc2[N+](=O)[O-])cc1-c1ccccc1)C(=O)O [Example 757]

% inhibition of farnesyltransferase at 1 × 10^-8 M: 84%
SMILES: CSCC[C@H](NC(=O)c1ccc(CN(CCC2CCCCC2)C(=O)c2ccccc2)cc1-c1ccccc1C)C(=O)O [Example 762]

% inhibition of farnesyltransferase at 1 × 10^-6 M: 88%
SMILES: CCSC[C@H](CC1CCCCC1)NCc1ccc(C(=O)N[C@@H](CCSC)C(=O)OCOC(=O)C(C)(C)C)c(-c2ccccc2C)c1 [Example 764]

% inhibition of farnesyltransferase at 1 × 10^-6 M: 76%
SMILES: CCSC[C@H](CC1CCCCC1)NCc1ccc(C(=O)N(C)[C@@H](CCSC)C(=O)O)c(-c2ccccc2C)c1 [Example 765]

% inhibition of farnesyltransferase at 1 × 10^-8 M: 95%
SMILES: CSCC[C@H](NC(=O)c1ccc(CN[C@H](CSC2CCCCC2)CC2CCCCC2)cc1-c1ccccc1C)C(=O)O [Example 766]

% inhibition of farnesyltransferase at 1 × 10^-8 M: 97%
SMILES: CSCC[C@H](NC(=O)c1ccc(CN[C@H](CSc2ccccc2C)CC2CCCCC2)cc1-c1ccccc1C)C(=O)O [Example 767]

SMILES: CSCC[C@H](NC(=O)c1ccc(S(=O)(=O)N(Cc2ccccc2)c2ccccc2)cc1-c1ccccc1C)C(=O)O [Example 768, N-[4-(N-Benzyl-N-phenylaminosulfonyl)-2-(2-methylphenyl)benzoyl]methionine lithium salt]
inhibition at 1 µM: 67%

% inhibition of farnesyltransferase at 1 × 10^-7 M: 90%
SMILES: CSCC[C@H](NC(=O)c1ccc(CN(c2ccccc2)S(=O)(=O)c2ccccc2)cc1-c1ccccc1C)C(=O)O [Example 769]

% inhibition of farnesyltransferase at 1 × 10^-7 M: 91%
SMILES: CSCC[C@H](NC(=O)c1ccc(CN(c2ccccc2)S(=O)(=O)c2ccc(C)cc2)cc1-c1ccccc1C)C(=O)O [Example 770]

inhibition at 1 µM: 79%
SMILES: CSCC[C@H](NC(=O)c1ccc(S(=O)(=O)NCCC2CCCCC2)cc1-c1ccccc1C)C(=O)O [Example 772, lithium salt]

inhibition at 1 µM: 41%
SMILES: CSCC[C@H](NC(=O)c1ccc(S(=O)(=O)NC2CCN(Cc3ccccc3)CC2)cc1-c1ccccc1C)C(=O)O [Example 773, lithium salt]

inhibition at 1 µM: 48%
SMILES: CSCC[C@H](NC(=O)c1ccc(S(=O)(=O)NCCN2CCCCC2)cc1-c1ccccc1C)C(=O)O [Example 774, lithium salt]

inhibition at 1 µM: 32%
SMILES: CSCC[C@H](NC(=O)c1ccc(S(=O)(=O)NCCN2CCOCC2)cc1-c1ccccc1C)C(=O)O [Example 775, lithium salt]

inhibition at 1 µM: 36%
SMILES: COc1ccc(CCNS(=O)(=O)c2ccc(C(=O)N[C@@H](CCSC)C(=O)O)c(-c3ccccc3C)c2)cc1OC [Example 776]

inhibition at 1 µM: 83%
SMILES: CSCC[C@H](NC(=O)c1ccc(S(=O)(=O)NCCCn2ccnc2)cc1-c1ccccc1C)C(=O)O [Example 777, lithium salt]

% inhibition of farnesyltransferase at 1 × 10^-8 M: 70%
SMILES: COc1cccc(CN(Cc2ccc(C(=O)N[C@@H](CCSC)C(=O)O)c(-c3ccccc3C)c2)c2ccccc2)c1 [Example 779]

% inhibition of farnesyltransferase at 1 × 10^-8 M: 71%
SMILES: CSCC[C@H](NC(=O)c1ccc(CN(c2ccccc2)S(=O)(=O)c2ccc(C(F)(F)F)cc2)cc1-c1ccccc1C)C(=O)O [Example 780]

% inhibition of farnesyltransferase at 1 × 10^-7 M: 91%
SMILES: CSCC[C@H](NC(=O)c1ccc(CN(Cc2ccc(Cl)cc2)c2ccccc2)cc1-c1ccccc1C)C(=O)O [Example 781]

% inhibition of farnesyltransferase at 1 × 10^-6 M: 96%
SMILES: CSCC[C@H](NC(=O)c1ccc(CN(Cc2ccc(C(F)(F)F)cc2)c2ccccc2)cc1-c1ccccc1C)C(=O)O [Example 782]

SMILES: CSCC[C@H](NC(=O)c1ccc(C=Cc2cncs2)cc1-c1ccccc1C)C(=O)O [Example 785, N-[4-(2-(thiazol-5-yl)ethen-1-yl)-2-(2-methylphenyl)benzoyl]methionine lithium salt]
inhibition at 0.1 µM: 96%

SMILES: CSCC[C@H](NC(=O)c1ccc(-c2ccccc2-c2ccccc2)cc1-c1ccccc1C)C(=O)O [Example 786, N-[4-(2-phenylphenyl)-2-(2-methylphenyl)benzoyl]methionine lithium salt]
inhibition at 1 µM: 34%

SMILES: CSCC[C@H](NC(=O)c1ccc(-c2cccc(-c3ccccc3)c2)cc1-c1ccccc1C)C(=O)O [Example 787, N-[4-(3-phenylphenyl)-2-(2-methylphenyl)benzoyl]methionine lithium salt]
inhibition at 1 µM: 70%

SMILES: CSCC[C@H](NC(=O)c1ccc(-c2ccc(-c3ccccc3)cc2)cc1-c1ccccc1C)C(=O)O [Example 788, N-[4-(4-phenylphenyl)-2-(2-methylphenyl)benzoyl]methionine lithium salt]
inhibition at 1 µM: 44%

inhibition at 1 µM: 88%
SMILES: CSCC[C@H](NC(=O)c1ccc(C[C@H]2CC[C@@H](c3ccccc3)CC2)cc1-c1ccccc1C)C(=O)O [Example 790, N-[4-syn-(4-phenylcyclohexylmethyl)-2-(2-methylphenyl)benzoyl]methionine lithium salt]

inhibition at 1 µM: 53%
SMILES: CSCC[C@H](NC(=O)c1ccc(/C=C/c2ccccc2)cc1-c1ccccc1C)C(=O)O [Example 791, N-[4-(2-phenylethen-1-yl)-2-(2-methylphenyl)benzoyl]methionine]

SMILES: CSCC[C@H](NC(=O)c1ccc(CCc2cccc(-c3ccccc3)c2)cc1-c1ccccc1C)C(=O)O [Example 793, N-[4-(2-(3-phenylphenyl)ethyl)-2-(2-methylphenyl)benzoyl]methionine lithium salt]
inhibition at 1 µM: 94%

SMILES: CSCC[C@H](NC(=O)c1ccc(COc2ccc(Oc3ccccc3)cc2)cc1-c1ccccc1C)C(=O)[O-].[Li+] [Example 795]
% inhibition of farnesyltransferase at 1 × 10^-7 M: 87%

SMILES: CCOC(=O)N1CCC(NCc2ccc(C(=O)N[C@@H](CCSC)C(=O)[O-])c(-c3ccccc3C)c2)CC1.[Li+] [Example 806]
% inhibition of farnesyltransferase at 1 × 10^-6 M: 72%

% inhibition of farnesyltransferase at 1 × 10^-6 M: 90%
SMILES: CSCC[C@H](NC(=O)c1ccc(COC2CCN(Cc3ccccc3)CC2)cc1-c1ccccc1C)C(=O)O [Example 807]

SMILES: CSCC[C@H](NC(=O)c1ccc(COC2CCN(C(=O)OC(C)(C)C)CC2)cc1-c1ccccc1C)C(=O)[O-].[Li+] [Example 808]
% inhibition of farnesyltransferase at 1 × 10^-6 M: 88%

SMILES: CSCC[C@H](NC(=O)c1ccc(COC2(Cc3ccccc3)CCN(C(=O)OC(C)(C)C)CC2)cc1-c1ccccc1C)C(=O)[O-].[Li+] [Example 809]
% inhibition of farnesyltransferase at 1 × 10^-6 M: 78%

inhibition at 1 µM: 89%
SMILES: CSCC[C@H](NC(=O)c1ccc(/C=C/c2ccc(Oc3ccccc3)nn2)cc1-c1ccccc1C)C(=O)O [Example 810, N-[4-(2-(3-phenoxypyridazin-6-yl)ethen-1-yl)-2-(2-methylphenyl)benzoyl]methionine lithium salt]

inhibition at 0.1 µM: 85%
SMILES: CSCC[C@H](NC(=O)c1ccc(CCc2ccc(Oc3ccccc3)nn2)cc1-c1ccccc1C)C(=O)O [Example 811, N-[4-(2-(3-phenoxylyridazin-6-yl)ethyl)-2-(2-methylphenyl)benzoyl]methionine lithium salt]

inhibition at 1 µM: 94%
SMILES: CSCC[C@H](NC(=O)c1ccc(/C=C/c2cnc(Oc3ccccc3)cn2)cc1-c1ccccc1C)C(=O)O [Example 812, lithium salt]

inhibition at 1 µM: 95%
SMILES: CSCC[C@H](NC(=O)c1ccc(CCc2cnc(Oc3ccccc3)cn2)cc1-c1ccccc1C)C(=O)O [Example 813, lithium salt]

SMILES: CSCC[C@H](NC(=O)c1ccc(COC2(c3ccccc3)CCN(C(=O)OC(C)(C)C)CC2)cc1-c1ccccc1C)C(=O)[O-].[Li+] [Example 816]
% inhibition of farnesyltransferase at 1 × 10^-6 M: 87%

SMILES: CSCC[C@H](NC(=O)c1ccc(COC2CCC(NC(=O)OC(C)(C)C)CC2)cc1-c1ccccc1C)C(=O)[O-].[Li+] (some centres unmarked) [Example 817]
% inhibition of farnesyltransferase at 1 × 10^-7 M: 60%

% inhibition of farnesyltransferase at 1 × 10^-7 M: 78%
SMILES: CSCC[C@H](NC(=O)c1ccc(COCc2ccc(-c3ccc(Cl)cc3)o2)cc1-c1ccccc1C)C(=O)NS(C)(=O)=O [Example 818]

% inhibition of farnesyltransferase at 1 × 10^-8 M: 76%
SMILES: CSCC[C@H](NC(=O)c1ccc(COCc2ccc(-c3ccc(Cl)cc3)o2)cc1-c1ccccc1C)C(=O)NS(=O)(=O)c1ccccc1 [Example 819]

SMILES: CSCC[C@H](NC(=O)c1ccc(COCc2ccc(-c3ccc(C(C)C)cc3)o2)cc1-c1ccccc1C)C(=O)[O-].[Li+] [Example 820]
% inhibition of farnesyltransferase at 1 × 10^-8 M: 66%

% inhibition of farnesyltransferase at 1 × 10^-8 M: 75%
SMILES: CSCC[C@H](NC(=O)c1ccc(COCc2ccc(-c3ccc(N(C)C)cc3)o2)cc1-c1ccccc1C)C(=O)O [Example 821]

% inhibition of farnesyltransferase at 1 × 10^-7 M: 93%
SMILES: CSCC[C@H](NC(=O)c1ccc(COCC2CCC(c3ccc(Cl)cc3)O2)cc1-c1ccccc1C)C(=O)O (some centres unmarked) [Example 822]

inhibition at 1 µM: 90%
SMILES: CSCC[C@H](NC(=O)c1ccc(CN2CCC[C@H]2COCc2ccccc2)cc1-c1ccccc1C)C(=O)O [Example 824, N-[4-(2-benzyloxymethylpyrrolidin-1-ylmethyl)-2-(2-methylphenyl)benzoyl]methionine]

SMILES: CCCCC(OCc1ccc(C(=O)N[C@@H](CCSC)C(=O)[O-])c(-c2ccccc2C)c1)c1ccco1.[Li+] (some centres unmarked) [Example 825]
% inhibition of farnesyltransferase at 1 × 10^-7 M: 79%
